Target: G-actin (Prodan-G-actin; actin) (Oryctolagus cuniculus, UniProt P68135)
Experiment: X-ray crystal structure
Assay type: binding
Conditions: nucleotide site

Compound	X-ray crystal structure (actin co-crystallised with SF-01 or GC-04, Ca2+)	X-ray crystal structure (actin co-crystallised with kabiramide C, Ca2+)
Nc1ncnc2c1ncn2[C@@H]1O[C@H](COP(=O)(O)OP(=O)(O)O)[C@@H](O)[C@H]1O [ADP]	complexes with GC-04 and SF-01 is occupied by ADP	
Nc1ncnc2c1ncn2[C@@H]1O[C@H](COP(=O)(O)OP(=O)(O)OP(=O)(O)O)[C@@H](O)[C@H]1O [ATP]		ATP is bound to the actin in the KabC complex

Source: PMC4213943 (ChemMedChem, 2014)
